Laboratory results taken from paper PMC10893631, “Receptor-based pharmacophore modeling, molecular docking, synthesis and biological evaluation of novel VEGFR-2, FGFR-1, and BRAF multi-kinase inhibitors” (BMC Chemistry, 2024).

What was measured:
MDA-MB-468 = assay: NCI SRB growth inhibition (single dose 10 µM / five-dose); type: cell-based, human; conditions: Homo sapiens; for inhibition at 10 µM: MDA-MB-468 (Breast cancer), read-out: GI%; for GI50: MDA-MB-468, Breast cancer, five-dose
Procedure: (§1) Screening of cytotoxic activity against a panel of sixty human tumor cell lines The selected compounds by NCI were evaluated for their anticancer activity in a two- stage process. […] Then, the output from the single dose screen is reported as a mean graph. […] Assay protocol. […] For a typical screening experiment, cells are inoculated into 96 well microtiter plates in 100 µL at plating densities ranging from 5000 to 40,000 cells/well depending on the doubling time of individual cell lines. […] After 24 h, two plates of each cell line are fixed in situ with TCA, to represent a measurement of the cell population for each cell line at the time of drug addition (Tz). The experimental drugs are solubilized in dimethyl sulfoxide at 400-fold the desired final maximum test concentration and stored frozen prior to use. At the time of drug addition, an aliquot of frozen concentrate is thawed and diluted to twice the desired final maximum test concentration with complete medium containing 50 µg/mL gentamicin. Additional four, 10-fold or ½ log serial dilutions are made to provide a total of five drug concentrations plus control. Aliquots of 100 mL of these different drug dilutions are added to the appropriate microtiter wells already containing […] of medium, resulting in the required final drug concentrations. […] For adherent cells, the assay is terminated by the addition of cold TCA. […] The supernatant is discarded, and the plates are washed five times with tap water and air dried. Sulforhodamine B (SRB) solution ([…]) at 0.4% (w/v) in 1% acetic acid is added to each well, and plates are incubated for 10 min at room temperature. After staining, unbound dye is removed by washing five times with 1% acetic acid and the plates are air dried. […] Using the seven absorbance measurements [time zero, (Tz), control growth, (C), and test growth in the presence of drug at the five concentration levels (Ti)], the percentage growth is calculated at each of the drug concentrations levels. Percentage growth inhibition is calculated as: [(Ti Tz)/(C–Tz)] x 100 for concentrations for which Ti>/=Tz and [(Ti-Tz)/Tz] x 100 for concentrations for which Ti < Tz. Three dose response parameters are calculated for each experimental agent. […] The drug concentration resulting in total growth inhibition (TGI) is calculated from Ti = Tz. […] Values are calculated for each of these three parameters if the level of activity is reached; however, if the effect is not reached or is exceeded, the value for that parameter is expressed as greater or less than the maximum or minimum concentration tested.

SNB-19 = assay: as above; type: cell-based, human; conditions: Homo sapiens; for inhibition at 10 µM: SNB-19 (CNS cancer), read-out: GI%; for GI50: SNB-19, CNS cancer, five-dose
Procedure: as §1

HCT-116 = assay: as above; type: cell-based, human; conditions: Homo sapiens, HCT-116; for inhibition at 10 µM: read-out: GI%
Procedure: as §1

A498 = assay: as above; type: cell-based, human; conditions: Homo sapiens; for inhibition at 10 µM: A498 (Renal cancer), read-out: GI%; for GI50: A498, Renal cancer, five-dose
Procedure: as §1

K-562 = assay: as above; type: cell-based, human; conditions: Homo sapiens, K562; for inhibition at 10 µM: K-562 (Leukemia), read-out: GI%; for GI50: K-562, Leukemia, five-dose
Procedure: as §1

RPMI-8226 = assay: as above; type: cell-based, human; conditions: Homo sapiens; for inhibition at 10 µM: RPMI-8226 (Leukemia), read-out: GI%; for GI50: RPMI-8226, Leukemia, five-dose
Procedure: as §1

LOX IMVI = assay: as above; type: cell-based, human; conditions: Homo sapiens; for inhibition at 10 µM: LOX IMVI (Melanoma), read-out: GI%; for GI50: LOX IMVI, Melanoma, five-dose
Procedure: as §1

MCF7 = assay: as above; type: cell-based, human; conditions: Homo sapiens; for inhibition at 10 µM: MCF7 (Breast cancer), read-out: GI%; for GI50: MCF7, Breast cancer, five-dose
Procedure: as §1

SNB-75 = assay: as above; type: cell-based, human; conditions: Homo sapiens; for inhibition at 10 µM: SNB-75 (CNS cancer), read-out: GI%; for GI50: SNB-75, CNS cancer, five-dose
Procedure: as §1

SF-539 = assay: as above; type: cell-based, human; conditions: Homo sapiens; for inhibition at 10 µM: SF-539 (CNS cancer), read-out: GI%; for GI50: SF-539, CNS cancer, five-dose
Procedure: as §1

DU-145 = assay: as above; type: cell-based, human; conditions: Homo sapiens; for inhibition at 10 µM: DU-145 (Prostate cancer), read-out: GI%; for GI50: DU-145, Prostate cancer, five-dose
Procedure: as §1

SW-620 = assay: as above; type: cell-based, human; conditions: Homo sapiens; for inhibition at 10 µM: SW-620 (Colon cancer), read-out: GI%; for GI50: SW-620, Colon cancer, five-dose
Procedure: as §1

VEGFR-2 = target: T1, VEGFR-2 (Homo sapiens, UniProt P35968); assay: VEGFR-2 kinase assay kit (BPS), Kinase-Glo Max luminescence; type: biochemical; conditions: VEGFR-2, single dose 10 µM, duplicate, mean ± SD
T1 construct: purchased BPS Biosciences 40325
Procedure: 2. Biochemical kinase assay procedure
The inhibitory activity against different kinases was determined using kinase kits […]
from BPS Biosciences and kinase-Glo Max luminescence kinase assay kit (Promega).
The assay was carried out according to the protocol provided by the manufacturer. A stock solution of the synthesized derivatives in 100% DMSO was prepared. Subsequently, the compounds were diluted to 10% DMSO.
A master mixture was prepared according to the number of wells. For VEGFR-2 and FGFR-1 biochemical assays each well include 6 μl of 5x Kinase Buffer 1 + 1 μl of 500 μM ATP + 1 μl of PTK Substrate (Poly-Glu,Tyr 4:1) (10 mg/ml) + 17 μl of distilled water. For BRAF assay each well include 6 μl of 5x Kinase Buffer 1 + 1 μl of ATP (500 μM) + 10 μl of 5X Raf substrate + 8 μl of distilled water. 1x Kinase buffer 1 was prepared by mixing 600 μl of 5x Kinase Buffer 1 with 2400 μl water to give 3 mL. Kinases were thawed on ice and were diluted with 1x Kinase Buffer 1.
To start the biochemical reaction, 25 µL of the master mixture was added to each well in 96 well plate. 5 µL of 10% DMSO was added to positive control wells and blank wells. 5 µL of diluted inhibitor was added to each well labelled with the test inhibitor so that the final concentration of DMSO is 1% in all reactions. Then 20 µL of (1 ng / μl) in case of VEGFR-2 and FGFR-1 or (2.5 ng/μl) in case of BRAF in 1x kinase buffer was added to positive control wells and wells labelled with the inhibitor, while 20 µL 1x kinase buffer 1 was added to the […]
The plate was incubated at 30 °C for 45 min. Subsequently, 50 μl of Kinase-Glo Max luminescence reagent was added to each well and the plate was covered with aluminum foil and incubated at room temperature 15 min. Finally, the luminescence was recorded using multimode microplate reader. Kinase activity assays were performed in duplicate at each […]
The luminescence data were analyzed as follows. The difference between luminescence intensities in the absence of kinase (Lut) and in the presence of kinase (Luc) was defined as 100 % activity (Lut – Luc). Using luminescence signal (Lu) in the presence of the compound, % activity was calculated as: % activity = {(Lut - Lu)/(Lut - Luc)}×100%. The […]
concentration of the test compounds required to reduce the kinase activity by 50% was determined from dose-response curves and recorded as their IC50. […]

T1 sequence (P35968 20-1356): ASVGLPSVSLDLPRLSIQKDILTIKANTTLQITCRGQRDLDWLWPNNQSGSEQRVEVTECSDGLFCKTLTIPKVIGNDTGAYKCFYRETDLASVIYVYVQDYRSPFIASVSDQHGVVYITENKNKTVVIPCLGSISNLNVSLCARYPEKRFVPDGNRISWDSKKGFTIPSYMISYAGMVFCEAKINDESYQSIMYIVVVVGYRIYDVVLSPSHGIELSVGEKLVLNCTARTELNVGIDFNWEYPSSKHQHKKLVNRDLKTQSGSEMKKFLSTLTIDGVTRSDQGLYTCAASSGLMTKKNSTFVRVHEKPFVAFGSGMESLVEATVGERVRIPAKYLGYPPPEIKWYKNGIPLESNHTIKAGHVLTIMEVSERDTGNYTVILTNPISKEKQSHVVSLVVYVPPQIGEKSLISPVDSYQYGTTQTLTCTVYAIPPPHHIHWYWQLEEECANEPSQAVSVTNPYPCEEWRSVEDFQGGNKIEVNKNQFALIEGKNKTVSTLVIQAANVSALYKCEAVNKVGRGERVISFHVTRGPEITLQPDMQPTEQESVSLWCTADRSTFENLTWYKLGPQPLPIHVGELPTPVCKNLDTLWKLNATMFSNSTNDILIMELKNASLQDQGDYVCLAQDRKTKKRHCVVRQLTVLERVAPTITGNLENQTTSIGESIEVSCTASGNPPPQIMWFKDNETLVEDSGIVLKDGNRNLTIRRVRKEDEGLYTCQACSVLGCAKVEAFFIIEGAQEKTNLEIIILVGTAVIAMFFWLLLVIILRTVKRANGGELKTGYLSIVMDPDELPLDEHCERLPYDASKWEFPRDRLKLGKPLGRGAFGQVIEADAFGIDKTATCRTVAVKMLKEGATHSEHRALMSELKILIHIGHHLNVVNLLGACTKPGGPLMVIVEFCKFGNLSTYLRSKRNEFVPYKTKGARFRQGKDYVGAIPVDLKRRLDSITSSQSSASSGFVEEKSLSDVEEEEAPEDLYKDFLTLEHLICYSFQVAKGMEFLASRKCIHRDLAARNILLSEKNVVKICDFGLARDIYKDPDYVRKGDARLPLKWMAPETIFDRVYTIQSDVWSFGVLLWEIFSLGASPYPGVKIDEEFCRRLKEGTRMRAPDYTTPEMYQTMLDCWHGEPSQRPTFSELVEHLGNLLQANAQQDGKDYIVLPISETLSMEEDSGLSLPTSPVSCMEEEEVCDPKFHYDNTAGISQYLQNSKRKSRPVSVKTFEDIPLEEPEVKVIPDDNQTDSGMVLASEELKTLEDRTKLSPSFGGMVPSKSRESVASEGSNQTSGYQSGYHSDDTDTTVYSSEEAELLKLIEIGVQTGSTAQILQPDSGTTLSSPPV

SMILES | inhibition at 10 µM (MDA-MB-468) [%] | GI50 (MDA-MB-468) [nM] | inhibition at 10 µM (SNB-19) [%] | GI50 (SNB-19) [nM] | GI50 (HCT-116) [nM] | inhibition at 10 µM (HCT-116) [%] | inhibition at 10 µM (A498) [%] | GI50 (A498) [nM] | inhibition at 10 µM (K-562) [%] | GI50 (K-562) [nM] | inhibition at 10 µM (RPMI-8226) [%] | GI50 (RPMI-8226) [nM] | inhibition at 10 µM (LOX IMVI) [%] | GI50 (LOX IMVI) [nM] | inhibition at 10 µM (MCF7) [%] | inhibition at 10 µM (SNB-75) [%] | inhibition at 10 µM (SF-539) [%] | inhibition at 10 µM (DU-145) [%] | inhibition at 10 µM (SW-620) [%] | inhibition at 10 µM (VEGFR-2) [%] | also measured
COc1ccc(-c2nc3cc(C(=O)NN=Cc4ccccc4O)ccc3[nH]2)cc1 [8h, N'-(2-Hydroxybenzylidene)-2-(4-methoxyphenyl)-1H-benzo[d]imidazole-5-carbohydrazide] | > 100 | 2980 | > 100 | 1760 | 4930 | > 100 | 54.5 | 9210 | 99.5 | 1360 | 96.7 | 1390 | 98.7 | 2230 | > 100 | 95.6 | > 100 | > 100 | > 100 | 62.9 ± 3.89 | GI50 (MCF7): 1670 nM; GI50 (SNB-75): 390 nM; GI50 (SF-539): 2050 nM; GI50 (DU-145): 2330 nM; GI50 (SW-620): 1750 nM
COc1ccc(-c2nc3cc(C(=O)NN=Cc4cccc(O)c4)ccc3[nH]2)cc1 [8i, N'-(3-Hydroxybenzylidene)-2-(4-methoxyphenyl)-1H-benzo[d]imidazole-5-carbohydrazide] | 54.6 |  | 15.8 |  |  | 42.8 | < 5 |  | 60.6 |  | 24.8 |  | 26.1 |  | 88.2 | 17.8 | 53.3 | 14 | 6.72 | 45.2 ± 2.22 | 
COc1ccc(-c2nc3cc(C(=O)NN=Cc4cccc(OC)c4)ccc3[nH]2)cc1 [8j, N'-(3-Methoxybenzylidene)-2-(4-methoxyphenyl)-1H-benzo[d]imidazole-5-carbohydrazide] | > 100 | 3060 | > 100 | 3180 | 2990 | > 100 | < 5 | 21500 | 88.1 | 6920 | > 100 | 4140 | > 100 | 1980 | > 100 | > 100 | 34.1 | > 100 | > 100 | 15.7 ± 1.41 | GI50 (MCF7): 2500 nM; GI50 (SNB-75): 1780 nM; GI50 (SF-539): 11500 nM; GI50 (DU-145): 3280 nM; GI50 (SW-620): 3100 nM
